Experimental data taken from the supplement of paper PMC10627819.

Columns and labels:
Assay in all cases: Bliss interaction score (quartile over a dose matrix) (fitness difference); higher = more antagonism (negative = synergy)
B. subtilis 168 = tested on: B. subtilis 168
In short: (§1)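 Growth in each well was taken as OD595 at entry into stationary phase. Dividing by the plate's robust no-drug mean and capping at 1 gave fitness, and single-drug fitness was inferred from the combination data. The Bliss score, observed minus product-expected fitness, is summarised by quartiles over technical, biological and donor/recipient replicates.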

S. aureus DSM 20231 = tested on: S. aureus DSM 20231
In short: as §1

S. aureus Newman = tested on: S. aureus Newman
In short: as §1

S. pneumoniae D39V = tested on: S. pneumoniae D39V
In short: as §1
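Note: first quartile when negative (synergy) and third quartile when positive (antagonism).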

SMILES: CC1=C(C(=O)O)N2C(=O)[C@@H](NC(=O)[C@H](N)c3ccccc3)[C@H]2SC1 [Cephalexin] + CC[C@H]1OC(=O)[C@H](C)C(=O)[C@H](C)[C@@H](O[C@@H]2O[C@H](C)C[C@H](N(C)C)[C@H]2O)[C@](C)(OC)C[C@@H](C)C(=O)[C@H](C)[C@H]2N(CCCCn3cnc(-c4cccnc4)c3)C(=O)O[C@]12C [Telithromycin]
- Bliss interaction score (B. subtilis 168): 0.0293
- Bliss interaction score (S. aureus DSM 20231): 0.0639
- Bliss interaction score (S. aureus Newman): 0.0476
- Bliss interaction score (S. pneumoniae D39V): 0.0359

SMILES: CC1=C(C(=O)O)N2C(=O)[C@@H](NC(=O)[C@H](N)c3ccccc3)[C@H]2SC1 [Cephalexin] + CC[C@H]1OC(=O)[C@H](C)[C@@H](O[C@H]2C[C@@](C)(OC)[C@@H](O)[C@H](C)O2)[C@H](C)[C@@H](O[C@@H]2O[C@H](C)C[C@H](N(C)C)[C@H]2O)[C@](C)(O)C[C@@H](C)C(=O)[C@H](C)[C@@H](O)[C@]1(C)O [Erythromycin]
- Bliss interaction score (B. subtilis 168): -0.0405
- Bliss interaction score (S. aureus DSM 20231): -0.0356
- Bliss interaction score (S. aureus Newman): 0.0826
- Bliss interaction score (S. pneumoniae D39V): 0.0656

SMILES: CC1=C(C(=O)O)N2C(=O)[C@@H](NC(=O)[C@H](N)c3ccccc3)[C@H]2SC1 [Cephalexin] + CC[C@H]1OC(=O)[C@H](C)[C@@H](O[C@H]2C[C@@](C)(OC)[C@@H](O)[C@H](C)O2)[C@H](C)[C@@H](O[C@@H]2O[C@H](C)C[C@H](N(C)C)[C@H]2O)[C@](C)(OC)C[C@@H](C)C(=O)[C@H](C)[C@@H](O)[C@]1(C)O [Clarithromycin]
- Bliss interaction score (B. subtilis 168): 0.0576
- Bliss interaction score (S. aureus DSM 20231): 0.0663
- Bliss interaction score (S. aureus Newman): 0.0874
- Bliss interaction score (S. pneumoniae D39V): 0.0361

SMILES: CC1=C(C(=O)O)N2C(=O)[C@@H](NC(=O)[C@H](N)c3ccccc3)[C@H]2SC1 [Cephalexin] + CN(C)[C@@H]1C(O)=C(C(N)=O)C(=O)[C@@]2(O)C(O)=C3C(=O)c4c(O)ccc(Cl)c4[C@@](C)(O)[C@H]3C[C@@H]12 [Clortetracycline]
- Bliss interaction score (B. subtilis 168): 0.0862
- Bliss interaction score (S. aureus DSM 20231): 0.0869
- Bliss interaction score (S. aureus Newman): 0.104
- Bliss interaction score (S. pneumoniae D39V): 0.0348

SMILES: CC1=C(C(=O)O)N2C(=O)[C@@H](NC(=O)[C@H](N)c3ccccc3)[C@H]2SC1 [Cephalexin] + CN[C@H](CC(C)C)C(=O)N[C@H]1C(=O)N[C@@H](CC(N)=O)C(=O)N[C@H]2C(=O)N[C@H]3C(=O)N[C@H](C(=O)N[C@H](C(=O)O)c4cc(O)cc(O)c4-c4cc3ccc4O)[C@H](O[C@H]3C[C@](C)(N)[C@@H](O)[C@H](C)O3)c3ccc(c(Cl)c3)Oc3cc2cc(c3O[C@@H]2O[C@H](CO)[C@@H](O)[C@H](O)[C@H]2O[C@H]2C[C@](C)(NCc3ccc(-c4ccc(Cl)cc4)cc3)[C@@H](O)[C@H](C)O2)Oc2ccc(cc2Cl)[C@H]1O [Oritavancin]
- Bliss interaction score (B. subtilis 168): 0.0217
- Bliss interaction score (S. aureus DSM 20231): 0.0767
- Bliss interaction score (S. aureus Newman): 0.104
- Bliss interaction score (S. pneumoniae D39V): 0.069

SMILES: CC1=C(C(=O)O)N2C(=O)[C@@H](NC(=O)[C@H](N)c3ccccc3)[C@H]2SC1 [Cephalexin] + CO[C@@]12[C@H](COC(N)=O)C3=C(C(=O)C(C)=C(N)C3=O)N1C[C@@H]1N[C@@H]12 [MitomycinC]
- Bliss interaction score (B. subtilis 168): -0.0415
- Bliss interaction score (S. aureus DSM 20231): 0.0608
- Bliss interaction score (S. aureus Newman): 0.0613
- Bliss interaction score (S. pneumoniae D39V): -0.0789

SMILES: CC1=C(C(=O)O)N2C(=O)[C@@H](NC(=O)[C@H](N)c3ccccc3)[C@H]2SC1 [Cephalexin] + COc1cccc2c1C(=O)c1c(O)c3c(c(O)c1C2=O)C[C@@](O)(C(=O)CO)C[C@@H]3O[C@H]1C[C@H](N)[C@H](O)[C@H](C)O1 [Doxorubicin]
- Bliss interaction score (B. subtilis 168): 0.084
- Bliss interaction score (S. aureus DSM 20231): 0.0343
- Bliss interaction score (S. aureus Newman): -0.0552
- Bliss interaction score (S. pneumoniae D39V): -0.111

SMILES: CC1=C(C(=O)O)N2C(=O)[C@@H](NC(=O)[C@H](N)c3ccccc3)[C@H]2SC1 [Cephalexin] + C[C@@H]1O[C@@H]1P(=O)(O)O [Fosfomycin]
- Bliss interaction score (B. subtilis 168): -0.0491
- Bliss interaction score (S. aureus DSM 20231): 0.038
- Bliss interaction score (S. aureus Newman): 0.134
- Bliss interaction score (S. pneumoniae D39V): -0.111

SMILES: CC1=C(C(=O)O)N2C(=O)[C@@H](NC(=O)[C@H](N)c3ccccc3)[C@H]2SC1 [Cephalexin] + C[C@@H](O)[C@H]1C(=O)N2C(C(=O)O)=C(SCCNC=N)C[C@H]12 [Imipenem]
- Bliss interaction score (B. subtilis 168): -0.104
- Bliss interaction score (S. aureus DSM 20231): 0.0677
- Bliss interaction score (S. aureus Newman): -0.0579
- Bliss interaction score (S. pneumoniae D39V): -0.237

SMILES: CC1=C(C(=O)O)N2C(=O)[C@@H](NC(=O)[C@H](N)c3ccccc3)[C@H]2SC1 [Cephalexin] + C[C@H]1COc2c(N3CCN(C)CC3)c(F)cc3c(=O)c(C(=O)O)cn1c23 [Levofloxacin]
- Bliss interaction score (B. subtilis 168): -0.0126
- Bliss interaction score (S. aureus DSM 20231): -0.037
- Bliss interaction score (S. aureus Newman): 0.0499
- Bliss interaction score (S. pneumoniae D39V): -0.152

SMILES: CC1=C(C(=O)O)N2C(=O)[C@@H](NC(=O)[C@H](N)c3ccccc3)[C@H]2SC1 [Cephalexin] + C[C@H]1c2cccc(O)c2C(=O)C2=C(O)[C@]3(O)C(=O)C(C(N)=O)=C(O)[C@@H](N(C)C)[C@@H]3[C@@H](O)[C@@H]21 [Doxycycline]
- Bliss interaction score (B. subtilis 168): -0.0302
- Bliss interaction score (S. aureus DSM 20231): 0.0912
- Bliss interaction score (S. aureus Newman): 0.0562
- Bliss interaction score (S. pneumoniae D39V): 0.183

SMILES: CC1=C(C(=O)O)N2C(=O)[C@@H](NC(=O)[C@H](N)c3ccccc3)[C@H]2SC1 [Cephalexin] + N[C@@H]1CONC1=O [CycloserineD]
- Bliss interaction score (B. subtilis 168): -0.0367
- Bliss interaction score (S. aureus DSM 20231): 0.0763
- Bliss interaction score (S. aureus Newman): -0.0487
- Bliss interaction score (S. pneumoniae D39V): -0.117

SMILES: CC1=C(C(=O)O)N2C(=O)[C@@H](NC(=O)[C@H](N)c3ccccc3)[C@H]2SC1 [Cephalexin] + O=C(N[C@H](CO)[C@H](O)c1ccc([N+](=O)[O-])cc1)C(Cl)Cl [Chloramphenicol]
- Bliss interaction score (B. subtilis 168): -0.069
- Bliss interaction score (S. aureus DSM 20231): 0.0832
- Bliss interaction score (S. aureus Newman): 0.0789
- Bliss interaction score (S. pneumoniae D39V): 0.113

SMILES: CC1=C(C(=O)O)N2C(=O)[C@@H](NC(=O)[C@H](N)c3ccccc3)[C@H]2SC1 [Cephalexin] + O=C(O)[C@H]1/C(=C/CO)O[C@@H]2CC(=O)N21 [Clavulanic]
- Bliss interaction score (B. subtilis 168): -0.0461
- Bliss interaction score (S. aureus DSM 20231): 0.0895
- Bliss interaction score (S. aureus Newman): -0.0674
- Bliss interaction score (S. pneumoniae D39V): -0.14

SMILES: CC1=C(C(=O)O)N2C(=O)[C@@H](NC(=O)[C@H](N)c3ccccc3)[C@H]2SC1 [Cephalexin] + O=C(O)c1cn(C2CC2)c2cc(N3CCNCC3)c(F)cc2c1=O [Ciprofloxacin]
- Bliss interaction score (B. subtilis 168): -0.084
- Bliss interaction score (S. aureus DSM 20231): 0.0694
- Bliss interaction score (S. aureus Newman): 0.067
- Bliss interaction score (S. pneumoniae D39V): -0.138

SMILES: CC1=C(C(=O)O)N2C(=O)[C@@H](NC(=O)[C@H](N)c3ccccc3)[C@H]2SC1 [Cephalexin] + O=C(O[C@@H]1Cc2c(O)cc(O)cc2O[C@@H]1c1cc(O)c(O)c(O)c1)c1cc(O)c(O)c(O)c1 [EGCG]
- Bliss interaction score (B. subtilis 168): -0.0668
- Bliss interaction score (S. aureus DSM 20231): -0.071
- Bliss interaction score (S. aureus Newman): -0.115
- Bliss interaction score (S. pneumoniae D39V): 0.0582

SMILES: CC1=C(C(=O)O)N2C(=O)[C@@H](NC(=O)[C@H](N)c3ccccc3)[C@H]2SC1 [Cephalexin] + Oc1cc(Cl)ccc1Oc1ccc(Cl)cc1Cl [Triclosan]
- Bliss interaction score (B. subtilis 168): 0.0637
- Bliss interaction score (S. aureus DSM 20231): 0.0867
- Bliss interaction score (S. aureus Newman): 0.024
- Bliss interaction score (S. pneumoniae D39V): 0.0582

SMILES: O=C(O)[C@H]1/C(=C/CO)O[C@@H]2CC(=O)N21 [Clavulanic] + CC1(C)S[C@@H]2[C@H](NC(=O)Cc3ccccc3)C(=O)N2[C@H]1C(=O)O [PenicillinG]
- Bliss interaction score (B. subtilis 168): -0.351
- Bliss interaction score (S. aureus DSM 20231): -0.147
- Bliss interaction score (S. aureus Newman): -0.128
- Bliss interaction score (S. pneumoniae D39V): 0.0529

SMILES: O=C(O)[C@H]1/C(=C/CO)O[C@@H]2CC(=O)N21 [Clavulanic] + CC1=C\[C@@H](O)CC(=O)Cc2nc(co2)C(=O)N2CCC=C2C(=O)O[C@H](C(C)C)[C@H](C)/C=C/C(=O)NC\C=C\1 [Virginiamycin M1]
- Bliss interaction score (B. subtilis 168): 0.0376
- Bliss interaction score (S. aureus DSM 20231): 0.0872
- Bliss interaction score (S. aureus Newman): -0.0599
- Bliss interaction score (S. pneumoniae D39V): 0.0495

SMILES: O=C(O)[C@H]1/C(=C/CO)O[C@@H]2CC(=O)N21 [Clavulanic] + CC(=O)NC[C@H]1CN(c2ccc(N3CCOCC3)c(F)c2)C(=O)O1 [Linezolid]
- Bliss interaction score (B. subtilis 168): 0.0747
- Bliss interaction score (S. aureus DSM 20231): -0.196
- Bliss interaction score (S. aureus Newman): 0.242
- Bliss interaction score (S. pneumoniae D39V): -0.1

SMILES: O=C(O)[C@H]1/C(=C/CO)O[C@@H]2CC(=O)N21 [Clavulanic] + CC(=O)O[C@H]1C[C@@]2(C)[C@@H](C[C@@H](O)[C@H]3[C@@]4(C)CC[C@@H](O)[C@@H](C)[C@@H]4CC[C@@]32C)/C1=C(\CCC=C(C)C)C(=O)O [Fusidic acid]
- Bliss interaction score (B. subtilis 168): -0.0604
- Bliss interaction score (S. aureus DSM 20231): -0.265
- Bliss interaction score (S. aureus Newman): 0.209
- Bliss interaction score (S. pneumoniae D39V): -0.0441

SMILES: O=C(O)[C@H]1/C(=C/CO)O[C@@H]2CC(=O)N21 [Clavulanic] + CC(C1CCC(C(O1)OC2C(CC(C(C2O)OC3C(C(C(CO3)(C)O)NC)O)N)N)N)NC [Gentamicin]
- Bliss interaction score (B. subtilis 168; main component drawn): 0.105
- Bliss interaction score (S. aureus DSM 20231; main component drawn): -0.273
- Bliss interaction score (S. aureus Newman; main component drawn): 0.288
- Bliss interaction score (S. pneumoniae D39V; main component drawn): 0.0396

SMILES: O=C(O)[C@H]1/C(=C/CO)O[C@@H]2CC(=O)N21 [Clavulanic] + CCC(C)C1C(=O)NC(=C)C(=O)NC(C(=O)NC(CSCC(C(=O)N1)NC(=O)/C(=C/C)/NC(=O)C(C(C)CC)N)C(=O)NC2C(SCC(NC(=O)CNC(=O)C3CCCN3C2=O)C(=O)NC(CCCCN)C(=O)NC4C(SCC(NC(=O)CNC(=O)C(NC(=O)C(NC(=O)C(NC(=O)CNC4=O)C)CC(C)C)CCSC)C(=O)NC(CC(=O)N)C(=O)NC(CCSC)C(=O)NC(CCCCN)C(=O)NC5C(SCC6C(=O)NC(C(=O)NC(CSC(C(C(=O)N6)NC(=O)C(NC5=O)C)C)C(=O)NC(CO)C(=O)NC(C(C)CC)C(=O)NC(CC7=CN=CN7)C(=O)NC(C(C)C)C(=O)NC(=C)C(=O)NC(CCCCN)C(=O)O)CC8=CN=CN8)C)C)C)CC(C)C [Nisin]
- Bliss interaction score (B. subtilis 168; main component drawn): -0.0543
- Bliss interaction score (S. aureus DSM 20231; main component drawn): 0.105
- Bliss interaction score (S. aureus Newman; main component drawn): 0.255
- Bliss interaction score (S. pneumoniae D39V; main component drawn): -0.0543
